Data from patent publication US20260109721A1, “IONIZABLE CATIONIC LIPIDS INCORPORATING SILICON: SYNTHESIS AND LNP FORMULATION” (priority 2023, published 2026).

Columns and labels:
HepG2 cell line = experiment: In vitro toxicity study on HepG2 cell line (resazurin, viability and IC50); type: cell-based, human; conditions: for IC50: Homo sapiens, lipid toxicity, HepG2, 48 h post-treatment, 6.25-800 μM, read-out: IC50 value, μM (on HepG2 cell)
Summary of the method: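 HepG2 cells (1000/well) were treated after overnight incubation with lipids at 6.25–800 μM for 48 h. Viability was read by resazurin fluorescence (530/580 nm) after 5 h at 37 °C, relative to ethanol vehicle controls. IC50 values came from concentration-response curves.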

[1] = Encapsulation efficiency of loaded LNPs, RiboGreen RNA assay (Method A); type: physicochemical; conditions: encapsulation efficiency of mRNA-loaded LNP, Method A, RiboGreen
Summary of the method: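 mRNA-LNP samples diluted in TE buffer (~4-7 μg/mL RNA) and plated in duplicate with TE or Triton X-100 buffer, then 10 min at 37° C to lyse particles. RiboGreen (1:100 in TE pH 7.5) added after cooling; fluorescence ex 480/em 525, mRNA quantified against RNA standard curve.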

[2] = HepG2 cells, 6.25 μM lipid, 48 h post-treatment, resazurin, relative to ethanol vehicle controls
[3] = HepG2 cells, 12.5 μM lipid, 48 h post-treatment, resazurin, relative to ethanol vehicle controls
[4] = HepG2 cells, 25 μM lipid, 48 h post-treatment, resazurin, relative to ethanol vehicle controls
[5] = HepG2 cells, 50 μM lipid, 48 h post-treatment, resazurin, relative to ethanol vehicle controls
[6] = HepG2 cells, 100 μM lipid, 48 h post-treatment, resazurin, relative to ethanol vehicle controls
[7] = HepG2 cells, 200 μM lipid, 48 h post-treatment, resazurin, relative to ethanol vehicle controls
[8] = HepG2 cells, 400 μM lipid, 48 h post-treatment, resazurin, relative to ethanol vehicle controls
[9] = HepG2 cells, 800 μM lipid, 48 h post-treatment, resazurin, relative to ethanol vehicle controls

SMILES | Viability (%) at different lipid concentrations, mean (HepG2 cell line; [2]) [%] | Viability (%) at different lipid concentrations, mean (HepG2 cell line; [3]) [%] | Viability (%) at different lipid concentrations, mean (HepG2 cell line; [4]) [%] | Viability (%) at different lipid concentrations, mean (HepG2 cell line; [5]) [%] | Viability (%) at different lipid concentrations, mean (HepG2 cell line; [6]) [%] | Viability (%) at different lipid concentrations, mean (HepG2 cell line; [7]) [%] | Viability (%) at different lipid concentrations, mean (HepG2 cell line; [8]) [%] | Viability (%) at different lipid concentrations, mean (HepG2 cell line; [9]) [%] | IC50 (HepG2 cell line; resazurin) [µM] | EE (%) [1] [%] | Viability (%) at different lipid concentrations, mean (HepG2 cell line; human, 48 h, 6.25 μM) [%] | Viability (%) at different lipid concentrations, mean (HepG2 cell line; human, 48 h, 12.5 μM) [%] | Viability (%) at different lipid concentrations, mean (HepG2 cell line; human, 48 h, 25 μM) [%] | Viability (%) at different lipid concentrations, mean (HepG2 cell line; human, 48 h, 50 μM) [%] | Viability (%) at different lipid concentrations, mean (HepG2 cell line; human, 48 h, 100 μM) [%] | Viability (%) at different lipid concentrations, mean (HepG2 cell line; human, 48 h, 200 μM) [%] | Viability (%) at different lipid concentrations, mean (HepG2 cell line; human, 48 h, 400 μM) [%] | Viability (%) at different lipid concentrations, mean (HepG2 cell line; human, 48 h, 800 μM) [%]
CCCCC/C=C\C/C=C\CCCCCCCCOC(CCCCCCC/C=C\C/C=C\CCCCC)O[Si](C)(C)OCCCCCCN(CCCCO)CCCCO (centres unmarked) [Example 62, (25Z,28Z)-15-((8Z,11Z)-heptadeca-8,11-dien-1-yl)-5-(4-hydroxybutyl)-13,13-dimethyl-12,14,16-trioxa-5-aza-13-silatetratriaconta-25,28-dien-1-ol] | 100.4 | 110.2 | 122.5 | 116.9 | 68.2 | 13.2 | −0.6 | −0.7 | 113 | 84 |  |  |  |  |  |  |  | 
CCCCC/C=C\C/C=C\CCCCCCCCO[Si](C)(C)OC(CCCCCCC/C=C\C/C=C\CCCCC)OCCCCCCN(CCO)CCO (centres unmarked) [Example 40, (23Z,26Z)-11-((8Z,11Z)-heptadeca-8,11-dien-1-yl)-3-(2-hydroxyethyl)-13,13-dimethyl-10,12,14-trioxa-3-aza-13-siladotriaconta-23,26-dien-1-ol] | 100.8 | 97.6 | 98.9 | 101.8 | 109.7 | 115.3 | 102.0 | 89.0 | > 800 | 87 |  |  |  |  |  |  |  | 
CCCCCCCC/C=C\CCCCCCCC(OCCCCCCCCCCCCCCC(C)C)O[Si](C)(C)OCCCCCCN(CCO)CCO (centres unmarked) [Example 76, (Z)-13-(heptadec-8-en-1-yl)-3-(2-hydroxyethyl)-11,11,29-trimethyl-10,12,14-trioxa-3-aza-11-silatriacontan-1-ol] | 101.9 | 100.5 | 98.5 | 100.8 | 112.3 | 103.8 | 77.7 | 70.0 | > 800 | 80 |  |  |  |  |  |  |  | 
CCCCCCCC/C=C\CCCCCCCCOC(CCCCCCC/C=C\CCCCCCCC)O[Si](C)(C)OCCCCCCN(C)[C@H](CO)Cc1ccccc1 (stereo partly drawn) [Example 78, (2S,Z)-2-benzyl-13-((Z)-heptadec-8-en-1-yl)-3,11,11-trimethyl-10,12,14-trioxa-3-aza-11-siladotriacont-23-en-1-ol] | 92.0 | 101.6 | 101.5 | 102.9 | 101.9 | 100.8 | 56.4 | 1.6 | 414 | 87 |  |  |  |  |  |  |  | 
CCCCCCCC/C=C\CCCCCCCCOC(=O)C(C)(C)CC(OCCCCCCCC/C=C\CCCCCCCC)O[Si](C)(C)OCCCCCCN(CCCCO)CCCCO (centres unmarked) [Example 86, (Z)-octadec-9-en-1-yl 18-hydroxy-14-(4-hydroxybutyl)-2,2,6,6-tetramethyl-4-(((Z)-octadec-9-en-1-yl)oxy)-5,7-dioxa-14-aza-6-silaoctadecanoate] | 95.4 | 107.0 | 108.7 | 105.4 | 95.4 | 77.2 | 57.1 | 42.8 | 564 | 87 |  |  |  |  |  |  |  | 
CCCCC/C=C\C/C=C\CCCCCCCCOC(CCCCCCC/C=C\C/C=C\CCCCC)O[Si](C)(C)OCCCCCCN(CCO)CCO (centres unmarked) [Example 48, (23Z,26Z)-13-((8Z,11Z)-heptadeca-8,11-dien-1-yl)-3-(2-hydroxyethyl)-11,11-dimethyl-10,12,14-trioxa-3-aza-11-siladotriaconta-23,26-dien-1-ol] | 97.4 | 102.2 | 95.7 | 97.8 | 99.6 | 101.5 | 98.4 | 68.3 | > 800 | 85 |  |  |  |  |  |  |  | 
CCCCC/C=C\C/C=C\CCCCCCCC(OCCCCCCCC/C=C\CCCCCCCC)O[Si](C)(C)OCCCCCCN(CCO)CCO (centres unmarked) [Example 45, (Z)-13-((8Z,11Z)-heptadeca-8,11-dien-1-yl)-3-(2-hydroxyethyl)-11,11-dimethyl-10,12,14-trioxa-3-aza-11-siladotriacont-23-en-1-ol] | 105.6 | 99.4 | 100.4 | 106.0 | 109.5 | 107.1 | 64.9 | 1.1 | 421 | 82 |  |  |  |  |  |  |  | 
CCCCCCCC/C=C\CCCCCCCCOC(CCCCCCCCCCCCCCC)O[Si](C)(C)OCCCCCCN(CCO)CCO (centres unmarked) [Example 41, (Z)-3-(2-hydroxyethyl)-11,11-dimethyl-13-pentadecyl-10,12,14-trioxa-3-aza-11-siladotriacont-23-en-1-ol] | 99.0 | 97.6 | 102.6 | 111.2 | 113.2 | 109.5 | 91.5 | 90.7 | > 800 | 78 |  |  |  |  |  |  |  | 
CCCCCCCC/C=C\CCCCCCCCOC(=O)C(C)(C)CC(OCCCCCCCC/C=C\CCCCCCCC)O[Si](C)(C)OCCCCCCN(CCO)CCO (centres unmarked) [Example 84, (Z)-octadec-9-en-1-yl 1-hydroxy-3-(2-hydroxyethyl)-11,11,15,15-tetramethyl-13-(((Z)-octadec-9-en-1-yl)oxy)-10,12-dioxa-3-aza-11-silahexadecan-16-oate] | 87.8 | 99.3 | 101.8 | 104.5 | 103.5 | 90.4 | 82.2 | 88.5 | > 800 | 90 |  |  |  |  |  |  |  | 
CCCCC/C=C\C/C=C\CCCCCCCCOC(CCCCCCC/C=C\C/C=C\CCCCC)O[Si](C)(C)OCCCCCCN(C)Cc1cn(C2[C@H](O)O[C@H](CO)[C@@H](O)[C@@H]2O)nn1 (stereo partly drawn) [Example 68, (4R,5S,6R)-3-(4-((22Z,25Z)-12-((8Z,11Z)-heptadeca-8,11-dien-1-yl)-2,10,10-trimethyl-9,11,13-trioxa-2-aza-10-silahentriaconta-22,25-dien-1-yl)-1H-1,2,3-triazol-1-yl)-6-(hydroxymethyl)tetrahydro-2H-pyran-2,4,5-triol] | 99.4 | 97.7 | 107.3 | 120.2 | 117.6 | 103.6 | 68.1 | 12.3 | 461 | 88 |  |  |  |  |  |  |  | 
CCCCC/C=C\C/C=C\CCCCCCCCOC(CCCCCN(CCO)CCO)O[Si](C)(C)OCCCCCCCC/C=C\C/C=C\CCCCC (centres unmarked) [Example 39, (21Z,24Z)-3-(2-hydroxyethyl)-11,11-dimethyl-9-(((9Z,12Z)-octadeca-9,12-dien-1-yl)oxy)-10,12-dioxa-3-aza-11-silatriaconta-21,24-dien-1-ol] |  |  |  |  |  |  |  |  | 667 | 87 | 99.8 | 97.8 | 99.4 | 98.6 | 100.3 | 106.1 | 83.4 | 35.8
